How the values were obtained:
Conditions in all cases: route oral
Rattus norvegicus [1] = assay: percentage decrease in heart rate after 24 hr at a dose of 30 mg/kg administered perorally in rats; assay type: functional
Rattus norvegicus [2] = assay: percentage decrease in heart rate after 4 hr at a dose of 100 mg/kg administered perorally in rats; assay type: functional
Rattus norvegicus [3] = assay: percentage decrease in heart rate after 4 hr at a dose of 300 mg/kg administered perorally in rats; assay type: functional
Rattus norvegicus [4] = assay: percentage decrease in heart rate after 6 hr at a dose of 30 mg/kg administered perorally in rats; assay type: functional
Rattus norvegicus [5] = assay: percentage decrease in heart rate after 1 hr at a dose of 30 mg/kg administered perorally in rats; assay type: functional
Rattus norvegicus [6] = assay: Percentage decrease in systolic blood pressure after 6 hr at 30 mg/kg administered perorally in rats; assay type: functional, Artery
Rattus norvegicus [7] = assay: Percentage decrease in systolic blood pressure after 1 hr at 30 mg/kg administered perorally in rats; assay type: functional, Artery
Rattus norvegicus [8] = assay: Percentage decrease in systolic blood pressure after 24 hr at 30 mg/kg administered perorally in rats; assay type: functional, Artery
Rattus norvegicus [9] = assay: Percentage decrease in systolic blood pressure after 4 hr at 30 mg/kg administered perorally in rats; assay type: functional, Artery
Rattus norvegicus [10] = assay: Percentage decrease in systolic blood pressure after 4 hr at 300 mg/kg administered perorally in rats; assay type: functional, Artery
Rattus norvegicus [11] = assay: Percentage decrease in systolic blood pressure after 4 hr at 100 mg/kg administered perorally in rats; assay type: functional, Artery
Rattus norvegicus [12] = assay: percentage decrease in heart rate after 4 hr at a dose of 30 mg/kg administered perorally in rats; assay type: functional
Rattus norvegicus [13] = assay: percentage decrease in heart rate after 24 hr at a dose of 30 mg/kg administered perorally in rats.; assay type: functional
Rattus norvegicus [14] = assay: percentage decrease in heart rate after 4 hr at a dose of 10 mg/kg administered perorally in rats.; assay type: functional
Rattus norvegicus [15] = assay: percentage decrease in heart rate after 4 hr at a dose of 30 mg/kg administered perorally in rats.; assay type: functional
Rattus norvegicus [16] = assay: percentage decrease in heart rate after 6 hr at a dose of 10 mg/kg administered perorally in rats.; assay type: functional
Rattus norvegicus [17] = assay: percentage decrease in heart rate after 6 hr at a dose of 30 mg/kg administered perorally in rats.; assay type: functional
Rattus norvegicus [18] = assay: percentage decrease in heart rate after 1 hr at a dose of 10 mg/kg administered perorally in rats.; assay type: functional
Rattus norvegicus [19] = assay: percentage decrease in heart rate after 1 hr at a dose of 30 mg/kg administered perorally in rats.; assay type: functional
Rattus norvegicus [20] = assay: percentage decrease in heart rate after 24 hr at a dose of 10 mg/kg administered perorally in rats.; assay type: functional
Rattus norvegicus [21] = assay: Percentage decrease in systolic blood pressure after 1 hr at 10 mg/kg administered perorally in rats; assay type: functional, Artery
Rattus norvegicus [22] = assay: Percentage decrease in systolic blood pressure after 24 hr at 10 mg/kg administered perorally in rats; assay type: functional, Artery
Rattus norvegicus [23] = assay: Percentage decrease in systolic blood pressure after 4 hr at 10 mg/kg administered perorally in rats; assay type: functional, Artery
Rattus norvegicus [24] = assay: Percentage decrease in systolic blood pressure after 6 hr at 10 mg/kg administered perorally in rats; assay type: functional, Artery
Rattus norvegicus [25] = assay: Percentage decrease in systolic blood pressure (heart rate) after 4 hr at 100 mg/kg administered perorally in rats; assay type: functional, Artery
Rattus norvegicus [26] = assay: Percentage decrease in systolic blood pressure (heart rate) after 4 hr at 30 mg/kg administered perorally in rats; assay type: functional, Artery
Rattus norvegicus [27] = assay: percentage decrease in heart rate after 24 hr at a dose of 1 mg/kg administered perorally in rats.; assay type: functional
Rattus norvegicus [28] = assay: percentage decrease in heart rate after 24 hr at a dose of 3 mg/kg administered perorally in rats.; assay type: functional
Rattus norvegicus [29] = assay: percentage decrease in heart rate after 4 hr at a dose of 1 mg/kg administered perorally in rats.; assay type: functional
Rattus norvegicus [30] = assay: percentage decrease in heart rate after 4 hr at a dose of 3 mg/kg administered perorally in rats.; assay type: functional
Rattus norvegicus [31] = assay: percentage decrease in heart rate after 6 hr at a dose of 1 mg/kg administered perorally in rats.; assay type: functional
Rattus norvegicus [32] = assay: percentage decrease in heart rate after 6 hr at a dose of 3 mg/kg administered perorally in rats.; assay type: functional
Rattus norvegicus [33] = assay: percentage decrease in heart rate after 1 hr at a dose of 3 mg/kg administered perorally in rats.; assay type: functional
Rattus norvegicus [34] = assay: percentage decrease in heart rate after 1 hr at a dose of 1 mg/kg administered perorally in rats.; assay type: functional
Rattus norvegicus [35] = assay: Cumulative effect on spontaneous motor activity in rats at 10 mg/kg given perorally; assay type: functional
Rattus norvegicus [36] = assay: Cumulative effect on spontaneous motor activity in rats at 100 mg/kg given perorally; assay type: functional
Rattus norvegicus [37] = assay: Cumulative effect on spontaneous motor activity in rats at 30 mg/kg given perorally; assay type: functional
Rattus norvegicus [38] = assay: Cumulative effect on spontaneous motor activity in rats at 300 mg/kg given perorally; values less than 25 % are inactive; assay type: functional
Rattus norvegicus [39] = assay: Effect on spontaneous motor activity in rats after 1 hr at 10 mg/kg given perorally; assay type: functional
Rattus norvegicus [40] = assay: Effect on spontaneous motor activity in rats after 1 hr at 100 mg/kg given perorally; assay type: functional
Rattus norvegicus [41] = assay: Effect on spontaneous motor activity in rats after 1 hr at 30 mg/kg given perorally; assay type: functional
Rattus norvegicus [42] = assay: Effect on spontaneous motor activity in rats after 1 hr at 300 mg/kg given perorally; values less than 25 % are inactive; assay type: functional
Rattus norvegicus [43] = assay: Effect on spontaneous motor activity in rats after 2 hr at 10 mg/kg given perorally; assay type: functional
Rattus norvegicus [44] = assay: Effect on spontaneous motor activity in rats after 2 hr at 100 mg/kg given perorally; assay type: functional
Rattus norvegicus [45] = assay: Effect on spontaneous motor activity in rats after 2 hr at 30 mg/kg given perorally; values less than 25 % are inactive; assay type: functional
Rattus norvegicus [46] = assay: Effect on spontaneous motor activity in rats after 2 hr at 300 mg/kg given perorally; values less than 25 % are inactive; assay type: functional
Rattus norvegicus [47] = assay: Percentage decrease in systolic blood pressure after 6 hr at 3 mg/kg administered perorally in rats; assay type: functional, Artery
Rattus norvegicus [48] = assay: Percentage decrease in systolic blood pressure (heart rate) after 4 hr at 10 mg/kg administered perorally in rats; assay type: functional, Artery
Rattus norvegicus [49] = assay: Percentage decrease in systolic blood pressure (heart rate) after 6 hr at 10 mg/kg administered perorally in rats; assay type: functional, Artery
Rattus norvegicus [50] = assay: Percentage decrease in systolic blood pressure (heart rate) after 6 hr at 30 mg/kg administered perorally in rats; assay type: functional, Artery
Rattus norvegicus [51] = assay: Percentage decrease in systolic blood pressure after 1 hr at 1 mg/kg administered perorally in rats; assay type: functional, Artery
Rattus norvegicus [52] = assay: Percentage decrease in systolic blood pressure after 1 hr at 3 mg/kg administered perorally in rats; assay type: functional, Artery
Rattus norvegicus [53] = assay: Percentage decrease in systolic blood pressure after 24 hr at 1 mg/kg administered perorally in rats; assay type: functional, Artery
Rattus norvegicus [54] = assay: Percentage decrease in systolic blood pressure after 24 hr at 3 mg/kg administered perorally in rats; assay type: functional, Artery
Rattus norvegicus [55] = assay: Percentage decrease in systolic blood pressure after 4 hr at 1 mg/kg administered perorally in rats; assay type: functional, Artery
Rattus norvegicus [56] = assay: Percentage decrease in systolic blood pressure (heart rate) after 1 hr at 10 mg/kg administered perorally in rats; assay type: functional, Artery
Rattus norvegicus [57] = assay: Percentage decrease in systolic blood pressure after 6 hr at 1 mg/kg administered perorally in rats; assay type: functional, Artery
Rattus norvegicus [58] = assay: Percentage decrease in systolic blood pressure (heart rate) after 24 hr at 30 mg/kg administered perorally in rats; assay type: functional, Artery
Rattus norvegicus [59] = assay: Percentage decrease in systolic blood pressure after 4 hr at 3 mg/kg administered perorally in rats; assay type: functional, Artery

CCCCCC(C)C(C)c1cc(O)c2c(c1)OC(C)(C)C1CCN(C(=O)CN3CCOCC3)C=C21 (stereo unspecified)
Heart rate (Rattus norvegicus [1]): 14%
Heart rate (Rattus norvegicus [2]): 5%
Heart rate (Rattus norvegicus [3]): 9%
Heart rate (Rattus norvegicus [4]): 0%
Heart rate (Rattus norvegicus [5]): -16%
Decrease in Systolic blood pressure (Rattus norvegicus [6]): -1%
Decrease in Systolic blood pressure (Rattus norvegicus [7]): -8%
Decrease in Systolic blood pressure (Rattus norvegicus [8]): -6%
Decrease in Systolic blood pressure (Rattus norvegicus [9]): -5%
Decrease in Systolic blood pressure (Rattus norvegicus [10]): 26%
Decrease in Systolic blood pressure (Rattus norvegicus [11]): 23%
Heart rate (Rattus norvegicus [12]): 6%

CCCCCC(C)C(C)c1cc(O)c2c(c1)OC(C)(C)C1=C2CN(C(=O)CN2CCOCC2)CC1 (stereo unspecified)
Heart rate (Rattus norvegicus [13]): 0%
Heart rate (Rattus norvegicus [2]): 37%
Heart rate (Rattus norvegicus [14]): 7%
Heart rate (Rattus norvegicus [15]): 16%
Heart rate (Rattus norvegicus [16]): 11%
Heart rate (Rattus norvegicus [17]): 20%
Heart rate (Rattus norvegicus [18]): -21%
Heart rate (Rattus norvegicus [19]): -2%
Heart rate (Rattus norvegicus [20]): 8%
Decrease in Systolic blood pressure (Rattus norvegicus [6]): 27%
Decrease in Systolic blood pressure (Rattus norvegicus [7]): 10%
Decrease in Systolic blood pressure (Rattus norvegicus [21]): 4%
Decrease in Systolic blood pressure (Rattus norvegicus [22]): 2%
Decrease in Systolic blood pressure (Rattus norvegicus [23]): 8%
Decrease in Systolic blood pressure (Rattus norvegicus [8]): 10%
Decrease in Systolic blood pressure (Rattus norvegicus [9]): 18%
Decrease in Systolic blood pressure (Rattus norvegicus [24]): 3%
Decrease in Systolic blood pressure (Rattus norvegicus [11]): 40%

CCCCCC(C)C(C)c1cc(O)c2c(c1)OC(C)(C)C1=C2CN(C(=O)CN)CC1 (stereo unspecified)
Heart rate (Rattus norvegicus [1]): 10%
Heart rate (Rattus norvegicus [4]): 13%
Heart rate (Rattus norvegicus [5]): 9%
Decrease in Systolic blood pressure (Rattus norvegicus [6]): 8%
Decrease in Systolic blood pressure (Rattus norvegicus [7]): 12%
Decrease in Systolic blood pressure (Rattus norvegicus [8]): 2%
Decrease in Systolic blood pressure (Rattus norvegicus [9]): 10%
Heart rate (Rattus norvegicus [12]): -5%

CC(CCCc1ccc(F)cc1)c1cc(O)c2c(c1)OC(C)(C)C1=C2CN(C(=O)CO)CC1 (stereo unspecified)
Heart rate (Rattus norvegicus [2]): 19%
Decrease in Systolic blood pressure (Rattus norvegicus [25]): 8%
Decrease in Systolic blood pressure (Rattus norvegicus [26]): 10%
Heart rate (Rattus norvegicus [12]): 30%

CCCCCC(C)C(C)c1cc(O)c2c(c1)OC(C)(C)C1=C2CN(C(=O)CCCO)CC1 (stereo unspecified)
Heart rate (Rattus norvegicus [2]): 19%
Decrease in Systolic blood pressure (Rattus norvegicus [11]): 0%

CCCCCC(C)C(C)c1cc(O)c2c(c1)OC(C)(C)C1CCN(C(=O)CO)C=C21 (stereo unspecified)
Heart rate (Rattus norvegicus [13]): -1%
Heart rate (Rattus norvegicus [2]): 19%
Heart rate (Rattus norvegicus [15]): -1%
Heart rate (Rattus norvegicus [17]): 1%
Heart rate (Rattus norvegicus [19]): 6%
Decrease in Systolic blood pressure (Rattus norvegicus [6]): 1%
Decrease in Systolic blood pressure (Rattus norvegicus [7]): 2%
Decrease in Systolic blood pressure (Rattus norvegicus [8]): -1%
Decrease in Systolic blood pressure (Rattus norvegicus [9]): -1%
Decrease in Systolic blood pressure (Rattus norvegicus [11]): 49%

CCCCCC(C)C(C)c1cc(O)c2c(c1)OC(C)(C)C1=C2CN(C(=O)CO)CC1 (stereo unspecified)
Heart rate (Rattus norvegicus [27]): -18%
Heart rate (Rattus norvegicus [28]): 6%
Heart rate (Rattus norvegicus [13]): -1%
Heart rate (Rattus norvegicus [14]): 25%
Heart rate (Rattus norvegicus [29]): -18%
Heart rate (Rattus norvegicus [30]): -1%
Heart rate (Rattus norvegicus [15]): 25%
Heart rate (Rattus norvegicus [16]): 7%
Heart rate (Rattus norvegicus [31]): -22%
Heart rate (Rattus norvegicus [32]): -12%
Heart rate (Rattus norvegicus [17]): 6%
Heart rate (Rattus norvegicus [18]): 12%
Heart rate (Rattus norvegicus [33]): -3%
Heart rate (Rattus norvegicus [20]): 11%
Heart rate (Rattus norvegicus [34]): -18%
Activity (Rattus norvegicus [35]): 50%
Activity (Rattus norvegicus [36]): 30%
Activity (Rattus norvegicus [37]): 60%
Activity (Rattus norvegicus [38]): -45%
Activity (Rattus norvegicus [39]): 38%
Activity (Rattus norvegicus [40]): 29%
Activity (Rattus norvegicus [41]): 67%
Activity (Rattus norvegicus [42]): -46%
Activity (Rattus norvegicus [43]): 116%
Activity (Rattus norvegicus [44]): 32%
Activity (Rattus norvegicus [45]): 23%
Activity (Rattus norvegicus [46]): -42%
Decrease in Systolic blood pressure (Rattus norvegicus [47]): 3%
Decrease in Systolic blood pressure (Rattus norvegicus [48]): 34%
Decrease in Systolic blood pressure (Rattus norvegicus [49]): 19%
Decrease in Systolic blood pressure (Rattus norvegicus [50]): 24%
Decrease in Systolic blood pressure (Rattus norvegicus [51]): 0%
Decrease in Systolic blood pressure (Rattus norvegicus [52]): 9%
Decrease in Systolic blood pressure (Rattus norvegicus [53]): -5%
Decrease in Systolic blood pressure (Rattus norvegicus [22]): 4%
Decrease in Systolic blood pressure (Rattus norvegicus [54]): 3%
Decrease in Systolic blood pressure (Rattus norvegicus [55]): 0%
Decrease in Systolic blood pressure (Rattus norvegicus [56]): 20%
Decrease in Systolic blood pressure (Rattus norvegicus [9]): 26%
Decrease in Systolic blood pressure (Rattus norvegicus [57]): -5%
Decrease in Systolic blood pressure (Rattus norvegicus [58]): 16%
Decrease in Systolic blood pressure (Rattus norvegicus [59]): 15%

Source: ChEMBL document CHEMBL1122324, “New antihypertensive cannabinoids” (1983)
